ChEMBL document CHEMBL5523667, “Blood-stage antimalarial activity, favourable metabolic stability and in vivo toxicity of novel piperazine linked 7-chloroquinoline-triazole conjugates” (Eur J Med Chem, 2024)
The source made the active and inactive calls. No cut-off for these calls is given here.

System: Plasmodium falciparum
Assay: Antimalarial activity against synchronized-ring stage chloroquine-sensitive Plasmodium falciparum 3D7 assessed as inhibition of parasite growth by measuring pyknotic appearance measured upto 60 hrs by Giemsa staining based light microscopic analysis
Assay type: functional, organism-based

O=C(Cn1cc(CN2CCN(c3ccnc4cc(Cl)ccc34)CC2)nn1)Nc1cccc([N+](=O)[O-])c1
Activity: Active
